{
  "source": "patent US20230406850A1",
  "about": "“CRYSTALLINE FORM OF HETEROCYCLIC COMPOUND, PREPARATION METHOD THEREFOR AND APPLICATION THEREOF” (WUHAN LL SCIENCE AND TECHNOLOGY DEVELOPMENT CO., LTD., priority 2020, published 2023)",
  "key": {"[1]": {"experiment": "Solubility in DMSO and DMSO/water mixed solvents", "assay_type": "physicochemical"}, "[2]": {"experiment": "Stability of crystalline form III slurried in DMSO/water mixed solvents", "assay_type": "physicochemical", "conditions": "for The experimental results (crystalline form): slurried three days at room temperature"}},
  "data": [
    {"smiles": "COC(=O)N1CCO[C@@H](Cc2c(-c3c(F)cc(S(N)(=O)=O)cc3F)nc3cc(Cl)ccn23)C1", "note": "[Crystalline form III, methyl (S)-2-((7-chloro-2-(2,6-difluoro-4-sulfamoylphenyl)imidazo[1,2-a]pyridin-3-yl)methyl)morpholine-4-carboxylate]", "values": [
      {"measurement": "Solubility", "setting": "[1]; aqueous with cosolvent or surfactant or cyclodextrin, DMSO/Water 1:2, RT", "result": "~500", "unit": "µg/mL"},
      {"measurement": "Solubility", "setting": "[1]; aqueous with cosolvent or surfactant or cyclodextrin, DMSO/Water 1:3, RT", "result": "~280", "unit": "µg/mL"},
      {"measurement": "Solubility", "setting": "[1]; aqueous with cosolvent or surfactant or cyclodextrin, DMSO/Water 1:4, RT", "result": "< 250", "unit": "µg/mL"},
      {"measurement": "Solubility", "setting": "[1]; organic solvent or mixture, DMSO, RT", "result": "> 200000", "unit": "µg/mL"},
      {"measurement": "The experimental results (crystalline form)", "setting": "[2]; DMSO/Water 1/2 V/V", "result": "Crystalline form III"},
      {"measurement": "The experimental results (crystalline form)", "setting": "[2]; DMSO/Water 1/4 V/V", "result": "Crystalline form III"},
      {"measurement": "The experimental results (crystalline form)", "setting": "[2]; DMSO/Water 2/3 V/V", "result": "Crystalline form III"},
      {"measurement": "water content of DMSO/water in which the form is stable without crystal transformation", "setting": "[2]; room temperature", "result": "higher than 60 % (volume percentage)"}
    ]}
  ]
}
